Key:
Type in all cases: in vitro ADME
[1] = molecular target: T1, human cytochrome P450 (CYP) 1A2 (Homo sapiens, UniProt P05177); experiment: Cytochrome P450 Inhibition Assay, CYP 1A2; details: test compound 0.1-10 μM, substrate CEC
T1 construct: made in house; host or cells: yeast (microsomal fraction)
T1 sequence (P05177 1-516): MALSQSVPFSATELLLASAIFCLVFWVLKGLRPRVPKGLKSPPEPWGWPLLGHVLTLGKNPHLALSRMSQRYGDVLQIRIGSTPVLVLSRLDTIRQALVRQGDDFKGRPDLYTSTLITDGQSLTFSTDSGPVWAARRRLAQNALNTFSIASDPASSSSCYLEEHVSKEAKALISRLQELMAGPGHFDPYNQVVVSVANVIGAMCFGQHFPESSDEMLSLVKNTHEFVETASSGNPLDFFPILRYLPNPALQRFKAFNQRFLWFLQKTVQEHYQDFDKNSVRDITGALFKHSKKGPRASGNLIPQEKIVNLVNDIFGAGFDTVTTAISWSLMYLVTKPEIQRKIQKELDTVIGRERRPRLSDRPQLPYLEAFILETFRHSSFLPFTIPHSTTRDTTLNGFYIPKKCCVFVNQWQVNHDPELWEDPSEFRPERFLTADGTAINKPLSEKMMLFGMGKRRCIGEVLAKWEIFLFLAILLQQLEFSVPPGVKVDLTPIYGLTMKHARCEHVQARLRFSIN
Experimental: (§1) Cytochrome P450 Inhibition Assay
The inhibitory potential (IC50) of test compounds against 5 human cytochrome P450 (CYP) isoforms (1A2, 2C9, 2C19, 3A4 and 2D6) was assessed using an automated fluorescent end point in vitro assay modified from Crespi (Crespi and Stresser, J Pharmacol Toxicol Methods 2000, 44: 325-331). Microsomal subcellular fractions prepared from Yeast cell lines expressing each human CYP isoform were used as an enzyme source in this assay. The activity of the 5 major human CYPs was determined from the biotransformation of a number of coumarin substrates to fluorescent metabolites, in the presence of NADPH. […] Comparison of the fluorescence observed in the presence of varying concentrations of test compound with that seen in its absence allowed an IC50 value to be calculated. […] The appropriate solvent controls and substrate blanks were included in each experiment to assess control activity and identify any inherent fluorescence due to the test compounds. […] The plates were read on a fluorimeter (Spectrafluor Plus) at the appropriate excitation and emission wavelengths (listed in Table 2) and the percent activity, corrected for control, was plotted against the test compound concentration.

[2] = molecular target: T2, human cytochrome P450 (CYP) 2C19 (Homo sapiens, UniProt P33261); experiment: Cytochrome P450 Inhibition Assay, CYP 2C19; details: test compound 0.1-10 μM, substrate MFC; read-out: Ic50 2C19
T2 construct: made in house; host or cells: yeast (microsomal fraction)
Experimental: as §1
The inhibitory potential (IC50) of test compounds against 5 human cytochrome P450 (CYP) isoforms (1A2, 2C9, 2C19, 3A4 and 2D6) was assessed using an automated fluorescent end point in vitro assay modified from Crespi (Crespi and Stresser, J Pharmacol Toxicol Methods 2000, 44: 325-331). Microsomal subcellular fractions prepared from Yeast cell lines expressing each human CYP isoform were used as an enzyme source in this assay. The activity of the 5 major human CYPs was determined from the biotransformation of a number of coumarin substrates to fluorescent metabolites, in the presence of NADPH. […] Stock solutions of each CYP, with its respective substrate, were prepared in phosphate buffer pH 7.4 (see Table 1) and 178 μl was added to the well of a black solid, flat bottom, 300 μl 96 well microtitre plate (Corning Costar). […] After pre-incubating at 37° C. for 5 min the reactions were started with addition of NADPH (20 μl, concentration shown in Table 1). The final solvent content in each incubation was <=2% (1% from the test compound and a maximum of 1% from the substrate). The appropriate solvent controls and substrate blanks were included in each experiment to assess control activity and identify any inherent fluorescence due to the test compounds. In addition, known inhibitors of each CYP were included as positive controls (see Table 3 for inhibitor concentrations and expected IC50 ranges). The reactions were stopped at defined timepoints (see Table 1) by quenching with 100 μl of solvent (acetonitrile:0.5M Tris buffer 80:20 v/v). The plates were read on a fluorimeter (Spectrafluor Plus) at the appropriate excitation and emission wavelengths (listed in Table 2) and the percent activity, corrected for control, was plotted against the test compound concentration.

[3] = Protein binding by equilibrium dialysis (human); details: 20 μM compound, 10% plasma, 37° C., read-out: % free (protein binding)
Experimental: Protein binding is determined by equilibrium dialysis. A 20 μM concentration of compound is dialyzed against 10% plasma at a temperature of 37° C. for 18 h. The resulting samples are analyzed using generic HPLC-UV methodology coupled with mass spectral peak identification. The reported K1 value is the first apparent association constant [proteináligand]/([protein][ligand]), all concentrations being measured in moles/liter (J. Med. Chem., 2006, 49(23), 6672-6682).
Protein binding can be measured in a high-throughput screen by equilibrium dialysis combined with liquid chromatography and mass spectrometry (Wan, H. and Rehngren, M., J. Chromatogr. A 2006, 1102, 125-134).

T2 sequence (P33261 whole entry): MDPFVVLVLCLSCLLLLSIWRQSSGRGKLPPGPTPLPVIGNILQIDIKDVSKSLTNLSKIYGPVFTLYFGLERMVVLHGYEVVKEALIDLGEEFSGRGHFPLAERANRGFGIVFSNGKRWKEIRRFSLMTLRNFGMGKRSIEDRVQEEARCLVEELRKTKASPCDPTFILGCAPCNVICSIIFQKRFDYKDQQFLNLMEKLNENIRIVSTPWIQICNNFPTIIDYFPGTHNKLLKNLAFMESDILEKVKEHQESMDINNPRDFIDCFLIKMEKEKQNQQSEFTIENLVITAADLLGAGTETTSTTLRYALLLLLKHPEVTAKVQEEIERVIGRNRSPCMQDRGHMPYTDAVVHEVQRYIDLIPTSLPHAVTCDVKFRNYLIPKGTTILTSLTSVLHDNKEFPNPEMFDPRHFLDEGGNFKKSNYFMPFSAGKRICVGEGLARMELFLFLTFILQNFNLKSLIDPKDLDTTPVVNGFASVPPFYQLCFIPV

| IC50 [1] [µM] | IC50 [2] [µM] | fraction unbound at 18 h, 20 μM [3] | Structure (SMILES) |
| --- | --- | --- | --- |
| > 10 | 8.01 | 0.0279 | COc1cc(CCc2cc(NC(=O)c3ccc(N4CCN(C)[C@H](C)C4)cc3)[nH]n2)cc(OC)c1 [Example 1b, (R)—N-(3-(3,5-Dimethoxyphenethyl)-1H-pyrazol-5-yl)-4-(3,4-dimethylpiperazin-1-yl)benzamide] |
| > 10 | > 10 | 0.0372 | COc1cc(CCc2cc(NC(=O)c3ccc(N4CCN(C)[C@@H](C)C4)cc3)[nH]n2)cc(OC)c1 [Example 1a, (S)—N-(3-(3,5-Dimethoxyphenethyl)-1H-pyrazol-5-yl)-4-(3,4-dimethylpiperazin-1-yl)benzamide] |

Source: patent US20090318468A1, “PYRAZOLE COMPOUNDS 436” (AstraZeneca AB, priority 2008, published 2009)
